Data on seven molecules can be found in ChEMBL document CHEMBL1131912, “Synthesis of potent and selective inhibitors of human plasma kallikrein” (Bioorg Med Chem Lett, 1999).

In test [1] the target is Plasma kallikrein (Homo sapiens, UniProt P03952). Briefly: Inhibitory activity of compound against human plasma Kallikrein (PK). In kind it is cell-free.
Test [2] has as its target Kallikrein-1 (Homo sapiens, UniProt P06870). The experiment in a line: Inhibitory activity of compound against Tissue Kallikrein (TK).

A value given as a limit tells only on which side of the number the result lay.

Plasma kallikrein, sequence (P03952 20-390 limits assumed): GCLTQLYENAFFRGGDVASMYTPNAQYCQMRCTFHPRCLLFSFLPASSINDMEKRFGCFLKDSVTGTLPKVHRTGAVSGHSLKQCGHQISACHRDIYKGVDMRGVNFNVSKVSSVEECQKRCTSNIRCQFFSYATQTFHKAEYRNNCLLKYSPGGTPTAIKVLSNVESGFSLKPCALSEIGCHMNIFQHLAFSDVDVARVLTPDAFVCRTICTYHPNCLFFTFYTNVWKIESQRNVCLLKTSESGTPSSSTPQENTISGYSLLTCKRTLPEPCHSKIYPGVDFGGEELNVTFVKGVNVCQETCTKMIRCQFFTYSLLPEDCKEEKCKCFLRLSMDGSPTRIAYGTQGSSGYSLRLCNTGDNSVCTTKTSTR
Plasma kallikrein, sequence (P03952 391-638 limits assumed): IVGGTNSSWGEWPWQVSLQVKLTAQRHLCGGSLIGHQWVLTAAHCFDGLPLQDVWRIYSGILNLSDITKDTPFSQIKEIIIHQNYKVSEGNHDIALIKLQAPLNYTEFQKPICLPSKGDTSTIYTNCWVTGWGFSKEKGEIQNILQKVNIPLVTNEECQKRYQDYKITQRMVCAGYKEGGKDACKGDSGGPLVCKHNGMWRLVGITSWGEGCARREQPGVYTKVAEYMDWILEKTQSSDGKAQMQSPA
Kallikrein-1, sequence (P06870 whole entry): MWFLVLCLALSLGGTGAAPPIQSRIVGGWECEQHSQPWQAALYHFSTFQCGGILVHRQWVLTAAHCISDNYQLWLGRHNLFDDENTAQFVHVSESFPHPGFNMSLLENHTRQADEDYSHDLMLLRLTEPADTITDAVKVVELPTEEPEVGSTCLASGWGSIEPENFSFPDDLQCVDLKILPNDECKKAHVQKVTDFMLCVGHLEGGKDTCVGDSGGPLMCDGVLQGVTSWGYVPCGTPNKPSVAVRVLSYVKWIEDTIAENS

What is called Ki is the equilibrium dissociation constant of an inhibitor or competing ligand from its target. In the case of `CC(C)(C)[C@@H](NC(=O)N1CCOCC1)C(=O)NCC(=O)NC(Cc1ccc(NC(=N)N)cc1)C(=O)C(F)(F)F` (some centres undefined), the results for the Ki in test [1] and in test [2] were 15.5 µM and over 150 µM, respectively.

Regarding `CC(C)(C)[C@@H](NC(=O)N1CCOCC1)C(=O)N[C@@H](Cc1ccccc1)C(=O)NC(Cc1ccc(NC(=N)N)cc1)C(=O)C(F)(F)F` (some centres undefined), the Ki in test [1] was 0.028 µM; in test [2] it was over 2500 µM.

Regarding `CC(C)(C)[C@@H](NC(=O)OC12CC3CC(CC(C3)C1)C2)C(=O)N[C@H](C(=O)NC(Cc1ccc(NC(=N)N)cc1)C(=O)C(F)(F)F)c1ccc2ccccc2c1` (some centres undefined), the figures for the Ki in test [1] and in test [2] were 0.5 µM and over 50 µM, respectively.

`N=C(N)Nc1ccc(CC(NC(=O)[C@H](Cc2ccccc2)NC(=O)[C@@H](CCc2ccccc2)NC(=O)OC23CC4CC(CC(C4)C2)C3)C(=O)C(F)(F)F)cc1` (some centres undefined): the Ki in test [1] was found to be 0.004 µM; in test [2], 7 µM.

With `CC(C)(C)OC(=O)N[C@H](Cc1ccccc1)C(=O)N[C@H](C(=O)NC(Cc1ccc(NC(=N)N)cc1)C(=O)C(F)(F)F)c1ccc2ccccc2c1` (some centres undefined), the values for the inhibition constant (Ki) in test [1] and in test [2] were 0.089 µM and 223 µM, respectively.

`CC(C)[C@@H](NC(=O)OC12CC3CC(CC(C3)C1)C2)C(=O)N[C@@H](Cc1ccccc1)C(=O)NC(Cc1ccc(NC(=N)N)cc1)C(=O)C(F)(F)F` (some centres undefined): the Ki in test [1] stood at 0.005 µM; in test [2], 191 µM.

Turning to `CC(C)(C)[C@@H](NC(=O)OC12CC3CC(CC(C3)C1)C2)C(=O)N[C@@H](Cc1ccccc1)C(=O)NC(Cc1ccc(NC(=N)N)cc1)C(=O)C(F)(F)F` (some centres undefined), the Ki amounted to 0.002 µM in test [1] and 47.3 µM in test [2].
